Results published in ChEMBL document CHEMBL2150992, “Synthesis of quinoline derivatives for fluorescent imaging certain bacteria” (Bioorg Med Chem Lett, 2012).
Active and inactive are the calls of the source. The calls are words filed in the database; no cut-off is given here.

How the values were obtained:
Assay type in all cases: functional, organism-based
Escherichia coli [1] = experiment: Binding affinity to Escherichia coli at 0.0781 mM after 10 mins by fluorescence microscopy
Staphylococcus aureus [2] = experiment: Binding affinity to Staphylococcus aureus at 0.0781 mM after 10 mins by fluorescence microscopy
Bacillus subtilis [3] = experiment: Binding affinity to Bacillus subtilis at 0.0781 mM after 10 mins by fluorescence microscopy
Bacillus subtilis [4] = experiment: Binding affinity to Bacillus subtilis at 0.0781 mM after 1 day by fluorescence microscopy
Escherichia coli [5] = experiment: Binding affinity to Escherichia coli at 0.0781 mM after 1 day by fluorescence microscopy
Staphylococcus aureus [6] = experiment: Binding affinity to Staphylococcus aureus at 0.0781 mM after 1 day by fluorescence microscopy

## O=C1CCCN1c1cc(-c2cc3ccccc3c3ccccc23)nc2ccccc12
Escherichia coli [1]
  Activity: Active
Staphylococcus aureus [2]
  Activity: Active
Bacillus subtilis [3]
  Activity: Active
Bacillus subtilis [4]
  Activity: Active
Escherichia coli [5]
  Activity: Active
Staphylococcus aureus [6]
  Activity: Active

## N#Cc1ccc2c(c1)[C@@H](N1CCCC1=O)C[C@@H](c1cc3ccccc3c3ccccc13)N2 (mixture of isomers)
Escherichia coli [1]
  Activity: inactive
Staphylococcus aureus [2]
  Activity: Active
Bacillus subtilis [3]
  Activity: Active

## CCCCc1ccc2nc(-c3cc4ccccc4c4ccccc34)cc(N3CCCC3=O)c2c1
Escherichia coli [1]
  Activity: inactive
Staphylococcus aureus [2]
  Activity: Active
Bacillus subtilis [3]
  Activity: Active
Bacillus subtilis [4]
  Activity: Active
Escherichia coli [5]
  Activity: Active
Staphylococcus aureus [6]
  Activity: Active

## O=C1CCCN1[C@H]1C[C@@H](c2cc3ccccc3c3ccccc23)Nc2ccccc21 (relative stereo)
Escherichia coli [1]
  Activity: inactive
Staphylococcus aureus [2]
  Activity: Active
Bacillus subtilis [3]
  Activity: Active

## O=C1CCCN1[C@H]1C[C@@H](c2cc3ccccc3c3ccccc23)Nc2ccc(Cl)cc21 (relative stereo)
Escherichia coli [1]
  Activity: inactive
Staphylococcus aureus [2]
  Activity: inactive
Bacillus subtilis [3]
  Activity: Active

## COc1ccc2nc(-c3cc4ccccc4c4ccccc34)cc(N3CCCC3=O)c2c1
Escherichia coli [1]
  Activity: Active
Staphylococcus aureus [2]
  Activity: inactive
Bacillus subtilis [3]
  Activity: Active
Bacillus subtilis [4]
  Activity: Active
Escherichia coli [5]
  Activity: Active
Staphylococcus aureus [6]
  Activity: Active

## O=C1CCCN1c1cc(-c2cc3ccccc3c3ccccc23)nc2ccc(Br)cc12
Escherichia coli [1]
  Activity: inactive
Staphylococcus aureus [2]
  Activity: Active
Bacillus subtilis [3]
  Activity: Active
Bacillus subtilis [4]
  Activity: Active
Escherichia coli [5]
  Activity: Active
Staphylococcus aureus [6]
  Activity: Active

## N#Cc1ccc2nc(-c3cc4ccccc4c4ccccc34)cc(N3CCCC3=O)c2c1
Escherichia coli [1]
  Activity: Active
Staphylococcus aureus [2]
  Activity: Active
Bacillus subtilis [3]
  Activity: Active
Bacillus subtilis [4]
  Activity: Active
Escherichia coli [5]
  Activity: Active
Staphylococcus aureus [6]
  Activity: Active

## c1ccc2c(c1)N[C@H](c1cc3ccccc3c3ccccc13)C1CCCOC21 (stereo not given in full)
Escherichia coli [1]
  Activity: inactive
Staphylococcus aureus [2]
  Activity: Active
Bacillus subtilis [3]
  Activity: inactive

## CCCCc1ccc2c(c1)[C@@H](N1CCCC1=O)C[C@@H](c1cc3ccccc3c3ccccc13)N2 (relative stereo)
Escherichia coli [1]
  Activity: inactive
Staphylococcus aureus [2]
  Activity: Active
Bacillus subtilis [3]
  Activity: inactive

## COc1ccc2c(c1)[C@@H](N1CCCC1=O)C[C@@H](c1cc3ccccc3c3ccccc13)N2 (relative stereo)
Escherichia coli [1]
  Activity: Active
Staphylococcus aureus [2]
  Activity: Active
Bacillus subtilis [3]
  Activity: Active

## O=C1CCCN1[C@H]1C[C@@H](c2cc3ccccc3c3ccccc23)Nc2ccc(Br)cc21 (relative stereo)
Escherichia coli [1]
  Activity: Active
Staphylococcus aureus [2]
  Activity: inactive
Bacillus subtilis [3]
  Activity: inactive

## c1ccc2c(c1)N[C@@H](c1cc3ccccc3c3ccccc13)C1CCCOC21 (stereo not given in full)
Escherichia coli [1]
  Activity: inactive
Staphylococcus aureus [2]
  Activity: Active
Bacillus subtilis [3]
  Activity: inactive

## O=C1CCCN1c1cc(-c2cc3ccccc3c3ccccc23)nc2ccc(Cl)cc12
Escherichia coli [1]
  Activity: Active
Staphylococcus aureus [2]
  Activity: Active
Bacillus subtilis [3]
  Activity: Active
Bacillus subtilis [4]
  Activity: Active
Escherichia coli [5]
  Activity: Active
Staphylococcus aureus [6]
  Activity: Active
